Where two headings read alike, the source gives them in different places.

Assay type in all cases: binding
For assay [1], the target named is T1, BRK (Homo sapiens, UniProt Q13882).
T1 construct: purchased DiscoveRx KINOMEscan
Conditions: for Percent control: BRK, 10 μM; for remaining binding at 10 µM: read-out: Percent control.

Assay [2] addresses T2, BTK (Homo sapiens, UniProt Q06187).
T2 construct: purchased DiscoveRx KINOMEscan
The following applies: for remaining binding at 10 µM: read-out: Percent control.

Assay [3] has as its target T3, EPHA2 (Homo sapiens, UniProt P29317).
T3 construct: purchased DiscoveRx KINOMEscan
Conditions: for remaining binding at 10 µM: read-out: Percent control.

Assay [4] deals with T4, EPHA3 (Homo sapiens, UniProt P29320).
T4 construct: purchased DiscoveRx KINOMEscan
T4 sequence (P29320 21-983): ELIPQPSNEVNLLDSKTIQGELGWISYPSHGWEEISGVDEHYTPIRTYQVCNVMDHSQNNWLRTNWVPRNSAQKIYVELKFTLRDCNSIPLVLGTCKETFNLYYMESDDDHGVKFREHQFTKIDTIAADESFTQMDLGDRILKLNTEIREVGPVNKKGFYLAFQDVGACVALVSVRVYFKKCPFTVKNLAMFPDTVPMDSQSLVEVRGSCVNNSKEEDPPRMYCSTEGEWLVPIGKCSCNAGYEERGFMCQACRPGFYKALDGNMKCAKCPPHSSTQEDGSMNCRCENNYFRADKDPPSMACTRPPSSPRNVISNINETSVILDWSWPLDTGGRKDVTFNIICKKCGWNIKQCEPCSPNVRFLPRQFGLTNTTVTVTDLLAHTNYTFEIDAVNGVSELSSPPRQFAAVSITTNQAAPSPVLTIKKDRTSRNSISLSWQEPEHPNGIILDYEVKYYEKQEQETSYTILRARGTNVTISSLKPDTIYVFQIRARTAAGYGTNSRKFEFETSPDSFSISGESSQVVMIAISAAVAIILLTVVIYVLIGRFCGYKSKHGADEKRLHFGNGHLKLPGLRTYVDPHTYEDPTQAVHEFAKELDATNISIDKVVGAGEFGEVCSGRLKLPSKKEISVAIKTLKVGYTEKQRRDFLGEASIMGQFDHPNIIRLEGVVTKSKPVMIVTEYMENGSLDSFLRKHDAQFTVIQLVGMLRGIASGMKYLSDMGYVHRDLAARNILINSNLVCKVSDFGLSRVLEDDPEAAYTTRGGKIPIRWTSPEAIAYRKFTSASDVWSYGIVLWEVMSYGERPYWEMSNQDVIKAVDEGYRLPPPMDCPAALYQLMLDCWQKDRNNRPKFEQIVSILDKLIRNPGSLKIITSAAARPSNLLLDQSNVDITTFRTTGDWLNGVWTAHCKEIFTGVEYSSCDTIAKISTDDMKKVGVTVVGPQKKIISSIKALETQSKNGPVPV
The following applies: for remaining binding at 10 µM: read-out: Percent control.

Assay [5] concerns the target T5, EPHA8 (Homo sapiens, UniProt P29322).
T5 construct: purchased DiscoveRx KINOMEscan
T5 sequence (P29322 28-1005): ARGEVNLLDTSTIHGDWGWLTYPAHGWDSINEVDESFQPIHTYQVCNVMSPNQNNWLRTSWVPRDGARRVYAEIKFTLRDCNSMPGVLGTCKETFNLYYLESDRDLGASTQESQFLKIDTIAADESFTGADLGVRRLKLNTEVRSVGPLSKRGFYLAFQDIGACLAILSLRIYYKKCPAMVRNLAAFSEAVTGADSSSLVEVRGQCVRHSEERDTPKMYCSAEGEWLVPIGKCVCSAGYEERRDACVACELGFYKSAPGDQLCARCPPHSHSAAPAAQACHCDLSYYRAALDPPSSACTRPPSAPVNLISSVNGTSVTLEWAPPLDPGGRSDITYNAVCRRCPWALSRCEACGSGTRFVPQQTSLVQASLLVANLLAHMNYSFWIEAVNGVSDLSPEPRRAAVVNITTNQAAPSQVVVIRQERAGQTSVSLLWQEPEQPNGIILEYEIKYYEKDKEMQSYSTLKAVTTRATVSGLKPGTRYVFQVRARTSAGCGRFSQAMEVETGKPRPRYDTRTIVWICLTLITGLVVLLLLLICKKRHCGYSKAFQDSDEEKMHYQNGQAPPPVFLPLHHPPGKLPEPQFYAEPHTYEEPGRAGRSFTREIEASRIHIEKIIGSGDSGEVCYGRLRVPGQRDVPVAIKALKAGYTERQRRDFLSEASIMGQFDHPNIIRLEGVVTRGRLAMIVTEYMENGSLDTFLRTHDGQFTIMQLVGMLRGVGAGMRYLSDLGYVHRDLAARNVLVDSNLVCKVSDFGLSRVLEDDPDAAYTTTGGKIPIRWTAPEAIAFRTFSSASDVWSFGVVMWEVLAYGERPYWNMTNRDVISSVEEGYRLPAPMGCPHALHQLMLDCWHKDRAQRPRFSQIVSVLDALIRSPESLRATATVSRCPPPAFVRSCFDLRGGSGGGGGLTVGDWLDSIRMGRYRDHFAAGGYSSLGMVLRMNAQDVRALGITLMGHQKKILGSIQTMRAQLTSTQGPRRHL
The following applies: for remaining binding at 10 µM: read-out: Percent control.

The target in assay [6] is T6, ERBB3 (Homo sapiens, UniProt P21860).
T6 construct: purchased DiscoveRx KINOMEscan
T6 sequence (P21860 20-1342): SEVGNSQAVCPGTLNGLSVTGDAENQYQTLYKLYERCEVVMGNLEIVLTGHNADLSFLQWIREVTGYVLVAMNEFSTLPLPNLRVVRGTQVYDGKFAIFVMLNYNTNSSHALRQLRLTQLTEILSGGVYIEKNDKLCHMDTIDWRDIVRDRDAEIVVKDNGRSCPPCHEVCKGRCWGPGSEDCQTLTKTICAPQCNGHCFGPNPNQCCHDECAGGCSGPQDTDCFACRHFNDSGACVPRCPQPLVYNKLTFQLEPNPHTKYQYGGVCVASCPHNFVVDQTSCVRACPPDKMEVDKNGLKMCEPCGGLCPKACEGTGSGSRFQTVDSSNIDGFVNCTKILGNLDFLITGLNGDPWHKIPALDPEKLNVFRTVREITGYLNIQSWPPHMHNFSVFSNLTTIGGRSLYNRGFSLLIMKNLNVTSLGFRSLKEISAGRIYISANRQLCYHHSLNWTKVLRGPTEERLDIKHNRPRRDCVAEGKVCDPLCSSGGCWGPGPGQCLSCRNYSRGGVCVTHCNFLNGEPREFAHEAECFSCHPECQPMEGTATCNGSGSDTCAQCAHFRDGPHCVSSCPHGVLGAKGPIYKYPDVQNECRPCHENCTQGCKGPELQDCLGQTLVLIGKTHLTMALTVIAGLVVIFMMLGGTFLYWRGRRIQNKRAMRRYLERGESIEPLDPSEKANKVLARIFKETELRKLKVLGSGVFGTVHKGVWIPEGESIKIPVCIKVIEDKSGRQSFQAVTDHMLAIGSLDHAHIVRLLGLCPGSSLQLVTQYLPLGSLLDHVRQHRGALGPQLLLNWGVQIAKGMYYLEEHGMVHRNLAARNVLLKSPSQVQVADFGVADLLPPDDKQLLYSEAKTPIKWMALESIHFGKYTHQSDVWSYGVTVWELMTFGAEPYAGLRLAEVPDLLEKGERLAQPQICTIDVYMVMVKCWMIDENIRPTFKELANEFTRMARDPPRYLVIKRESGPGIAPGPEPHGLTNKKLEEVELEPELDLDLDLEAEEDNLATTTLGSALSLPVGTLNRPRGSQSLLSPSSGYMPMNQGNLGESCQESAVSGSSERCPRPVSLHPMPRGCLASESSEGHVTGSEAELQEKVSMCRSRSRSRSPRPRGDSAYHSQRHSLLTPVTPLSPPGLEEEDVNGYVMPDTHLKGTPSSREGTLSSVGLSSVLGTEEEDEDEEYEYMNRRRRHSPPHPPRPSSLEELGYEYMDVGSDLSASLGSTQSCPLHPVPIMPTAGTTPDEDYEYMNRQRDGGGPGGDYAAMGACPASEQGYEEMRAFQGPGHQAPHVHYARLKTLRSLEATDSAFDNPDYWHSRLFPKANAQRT
The following applies: for Percent control: ERBB3, 10 μM; for remaining binding at 10 µM: read-out: Percent control.

Assay [7] deals with T7, ERBB4 (Homo sapiens, UniProt Q15303).
T7 construct: purchased DiscoveRx KINOMEscan
T7 sequence (Q15303 26-1308): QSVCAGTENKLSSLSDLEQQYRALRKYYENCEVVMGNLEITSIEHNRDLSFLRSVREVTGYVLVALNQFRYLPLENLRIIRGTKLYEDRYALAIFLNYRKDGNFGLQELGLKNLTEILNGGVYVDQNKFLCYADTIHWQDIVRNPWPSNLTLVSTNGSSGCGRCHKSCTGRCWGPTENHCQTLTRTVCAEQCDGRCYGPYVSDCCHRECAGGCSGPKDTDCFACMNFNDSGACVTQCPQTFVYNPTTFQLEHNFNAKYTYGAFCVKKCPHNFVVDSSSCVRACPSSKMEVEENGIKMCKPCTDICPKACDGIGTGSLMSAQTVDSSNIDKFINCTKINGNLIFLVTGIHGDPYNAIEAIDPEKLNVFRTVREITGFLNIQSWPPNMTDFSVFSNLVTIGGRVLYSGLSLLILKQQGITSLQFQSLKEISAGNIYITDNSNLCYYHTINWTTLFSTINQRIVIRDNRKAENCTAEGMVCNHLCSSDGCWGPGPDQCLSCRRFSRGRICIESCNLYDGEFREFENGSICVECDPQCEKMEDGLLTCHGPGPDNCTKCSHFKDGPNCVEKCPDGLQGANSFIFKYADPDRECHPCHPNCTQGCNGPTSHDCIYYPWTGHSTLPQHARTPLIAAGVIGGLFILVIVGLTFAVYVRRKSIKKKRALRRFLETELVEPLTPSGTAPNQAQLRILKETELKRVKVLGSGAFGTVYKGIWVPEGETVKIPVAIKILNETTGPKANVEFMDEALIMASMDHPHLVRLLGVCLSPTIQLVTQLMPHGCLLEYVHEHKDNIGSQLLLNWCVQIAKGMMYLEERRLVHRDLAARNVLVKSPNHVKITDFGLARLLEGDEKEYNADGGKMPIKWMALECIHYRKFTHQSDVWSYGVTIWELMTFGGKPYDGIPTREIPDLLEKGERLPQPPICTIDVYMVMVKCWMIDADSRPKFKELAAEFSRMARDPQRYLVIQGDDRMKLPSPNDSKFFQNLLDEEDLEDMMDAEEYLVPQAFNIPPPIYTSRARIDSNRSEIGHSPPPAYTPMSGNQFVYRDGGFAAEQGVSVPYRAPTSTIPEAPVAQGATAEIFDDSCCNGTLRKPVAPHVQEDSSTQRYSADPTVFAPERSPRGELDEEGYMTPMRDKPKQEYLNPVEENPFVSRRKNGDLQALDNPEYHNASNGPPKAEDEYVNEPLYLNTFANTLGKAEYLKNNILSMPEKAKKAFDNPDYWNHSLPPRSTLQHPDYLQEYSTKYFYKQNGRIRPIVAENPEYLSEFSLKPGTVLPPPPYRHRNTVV
Conditions: for remaining binding at 10 µM: read-out: Percent control.

The target in assay [8] is T8, FGFR4 (Homo sapiens, UniProt P22455).
T8 construct: purchased DiscoveRx KINOMEscan
T8 sequence (P22455 22-802): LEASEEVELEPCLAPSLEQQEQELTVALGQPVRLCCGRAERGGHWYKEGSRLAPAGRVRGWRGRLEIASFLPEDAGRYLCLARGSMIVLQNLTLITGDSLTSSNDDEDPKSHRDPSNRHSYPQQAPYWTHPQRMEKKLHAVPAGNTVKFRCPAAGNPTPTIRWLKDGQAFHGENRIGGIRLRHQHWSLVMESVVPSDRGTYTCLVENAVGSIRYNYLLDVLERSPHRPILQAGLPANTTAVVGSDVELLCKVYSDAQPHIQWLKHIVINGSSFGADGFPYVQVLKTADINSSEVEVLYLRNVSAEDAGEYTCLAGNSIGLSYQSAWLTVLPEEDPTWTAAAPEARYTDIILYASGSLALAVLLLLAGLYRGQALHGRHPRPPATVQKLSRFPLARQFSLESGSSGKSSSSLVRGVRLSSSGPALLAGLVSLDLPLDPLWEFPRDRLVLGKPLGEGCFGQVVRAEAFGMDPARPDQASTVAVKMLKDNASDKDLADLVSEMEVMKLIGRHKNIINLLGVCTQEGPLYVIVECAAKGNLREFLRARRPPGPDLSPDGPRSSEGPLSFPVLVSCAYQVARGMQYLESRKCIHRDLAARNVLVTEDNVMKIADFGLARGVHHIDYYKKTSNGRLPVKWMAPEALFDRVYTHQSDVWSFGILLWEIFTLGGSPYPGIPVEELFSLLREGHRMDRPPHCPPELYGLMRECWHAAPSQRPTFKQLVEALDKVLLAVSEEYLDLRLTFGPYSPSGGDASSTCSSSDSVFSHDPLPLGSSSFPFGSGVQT
The following applies: for remaining binding at 10 µM: read-out: Percent control.

The target in assay [9] is T9, FGR (Homo sapiens, UniProt P09769).
T9 construct: purchased DiscoveRx KINOMEscan
T9 sequence (P09769 whole entry): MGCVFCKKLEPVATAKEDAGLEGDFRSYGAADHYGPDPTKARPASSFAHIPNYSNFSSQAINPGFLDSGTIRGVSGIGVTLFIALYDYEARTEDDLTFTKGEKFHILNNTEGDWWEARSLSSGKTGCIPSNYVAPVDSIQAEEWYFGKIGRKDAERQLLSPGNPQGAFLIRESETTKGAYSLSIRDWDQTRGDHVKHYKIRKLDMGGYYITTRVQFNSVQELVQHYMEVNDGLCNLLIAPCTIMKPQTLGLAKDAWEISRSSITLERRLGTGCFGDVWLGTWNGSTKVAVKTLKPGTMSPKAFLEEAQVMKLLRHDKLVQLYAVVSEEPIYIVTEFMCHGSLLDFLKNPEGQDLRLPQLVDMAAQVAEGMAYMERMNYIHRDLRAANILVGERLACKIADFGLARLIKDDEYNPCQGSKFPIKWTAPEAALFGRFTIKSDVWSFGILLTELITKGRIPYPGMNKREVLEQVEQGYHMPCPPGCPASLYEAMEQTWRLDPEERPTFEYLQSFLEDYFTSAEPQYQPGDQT
The following applies: for Percent control: 10 μM; for remaining binding at 10 µM: read-out: Percent control.

In assay [10] the target is T10, INSR (Homo sapiens, UniProt P06213).
T10 construct: purchased DiscoveRx KINOMEscan
Conditions: for remaining binding at 10 µM: read-out: Percent control.

Assay [11] deals with T11, INSRR (Homo sapiens, UniProt P14616).
T11 construct: purchased DiscoveRx KINOMEscan
The following applies: for remaining binding at 10 µM: read-out: Percent control.

In assay [12] the target is T12, PYK2 (Homo sapiens, UniProt Q14289).
T12 construct: purchased DiscoveRx KINOMEscan
T12 sequence (Q14289 whole entry): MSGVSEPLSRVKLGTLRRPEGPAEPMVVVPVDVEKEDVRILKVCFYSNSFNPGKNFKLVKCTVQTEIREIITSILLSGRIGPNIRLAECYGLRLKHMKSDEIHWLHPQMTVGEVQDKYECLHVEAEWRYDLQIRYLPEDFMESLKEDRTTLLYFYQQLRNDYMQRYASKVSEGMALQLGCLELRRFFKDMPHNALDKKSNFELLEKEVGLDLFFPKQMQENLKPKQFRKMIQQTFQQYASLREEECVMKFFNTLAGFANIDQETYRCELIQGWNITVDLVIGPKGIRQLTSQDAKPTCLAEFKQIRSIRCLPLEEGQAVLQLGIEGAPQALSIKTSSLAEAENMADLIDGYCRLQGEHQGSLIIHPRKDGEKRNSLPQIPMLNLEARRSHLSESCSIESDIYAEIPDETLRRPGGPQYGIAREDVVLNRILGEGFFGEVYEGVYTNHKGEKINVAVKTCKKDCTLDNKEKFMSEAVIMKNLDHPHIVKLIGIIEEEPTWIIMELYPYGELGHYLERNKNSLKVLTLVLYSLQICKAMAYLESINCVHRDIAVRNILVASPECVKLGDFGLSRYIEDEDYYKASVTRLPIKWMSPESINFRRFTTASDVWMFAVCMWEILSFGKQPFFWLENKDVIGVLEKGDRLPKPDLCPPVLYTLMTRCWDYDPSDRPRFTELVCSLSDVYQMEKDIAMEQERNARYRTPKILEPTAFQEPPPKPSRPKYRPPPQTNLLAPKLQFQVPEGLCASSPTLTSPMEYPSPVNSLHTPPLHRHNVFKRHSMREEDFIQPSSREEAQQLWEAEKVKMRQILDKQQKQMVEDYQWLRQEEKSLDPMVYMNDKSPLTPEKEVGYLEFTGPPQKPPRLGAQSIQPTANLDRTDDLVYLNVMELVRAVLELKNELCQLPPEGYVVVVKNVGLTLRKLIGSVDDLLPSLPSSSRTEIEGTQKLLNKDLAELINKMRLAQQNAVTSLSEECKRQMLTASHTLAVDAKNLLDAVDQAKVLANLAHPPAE
The following applies: for remaining binding at 10 µM: read-out: Percent control.

Assay [13] addresses T13, TNK2 (Homo sapiens, UniProt Q07912).
T13 construct: purchased DiscoveRx (KINOMEscan service)
The following applies: for remaining binding at 10 µM: read-out: Percent control.

In assay [14] the target is T14, TRKA (Homo sapiens, UniProt P04629).
T14 construct: purchased DiscoveRx (KINOMEscan service)
The following applies: for remaining binding at 10 µM: read-out: Percent control.

Assay [15] has as its target T15, VEGFR2 (Homo sapiens, UniProt P35968).
T15 construct: purchased DiscoveRx Corporation (KINOMEscan service)
Conditions: for Percent control: 10 μM; for remaining binding at 10 µM: read-out: Percent control.

Consider `Cc1ccc(NC(=O)c2ccc(CN3CCN(C)CC3)cc2)cc1Nc1nccc(-c2cccnc2)[n+]1[Pt-2]1([Cl])[NH2+]C2CCCCC2[NH2+]1` (stereo not drawn) [1b, oxaliplatin-imatinib], for which the Percent control in assay [1] was 93%; in assay [2] (BTK, 10 μM), 100%; in assay [3] (EPHA2, 10 μM) it was 99%; in assay [4] (EPHA3, 10 μM) it was 64%; in [5] (EPHA8, 10 μM) it was 68%; in assay [6] it was 100%. Besides, the Percent control is 93% in [7] (ERBB4, 10 μM); 94% in [8] (FGFR4, 10 μM); 80% in assay [9]; 92% in assay [10] (INSR, 10 μM); 100% in assay [11] (INSRR, 10 μM); 92% in [12] (PYK2, 10 μM). In addition, the Percent control was found to be 100% in assay [13] (TNK2, 10 μM); 98% in [14] (TRKA, 10 μM); 100% in [15].

Take `C#Cc1cccc(Nc2c3cc(OCCOC)c(OCCOC)cc3nc[n+]2[Pt@SP2-2]([NH3+])([NH3+])[Cl])c1` [2a, cisplatin-erlotinib]: the Percent control in assay [1] worked out at 89%; in assay [2] (BTK, 10 μM), 87%; in [3] (EPHA2, 10 μM), 93%; in [4] (EPHA3, 10 μM), 60%; in [5] (EPHA8, 10 μM), 56%; in [6], 100%. The Percent control in assay [7] (ERBB4, 10 μM) came out at 47%; in [8] (FGFR4, 10 μM) it was 99%; in assay [9] it was 81%; in assay [10] (INSR, 10 μM) it was 85%; in [11] (INSRR, 10 μM), 100%; in assay [12] (PYK2, 10 μM) it was 90%. The Percent control in [13] stood at 100; in assay [14] (TRKA, 10 μM), 94%; in assay [15] it was 98%.

Turning to `COc1cc2c(Nc3ccc(Br)cc3F)[n+]([Pt-2]3([Cl])[NH2+]C4CCCCC4[NH2+]3)cnc2cc1OCC1CCN(C)CC1` (stereo not drawn) [3b, oxaliplatin-vandetanib], the Percent control is 27% in assay [1]; 37% in assay [2] (BTK, 10 μM); 43% in assay [3] (EPHA2, 10 μM); 30% in assay [4] (EPHA3, 10 μM); 6.8% in assay [5] (EPHA8, 10 μM); 4.1% in assay [6]. The Percent control in assay [7] (ERBB4, 10 μM) amounted to 56%; in [8] (FGFR4, 10 μM) it was 97%; in assay [9], 33%; in [10] (INSR, 10 μM) it was 72%; in [11] (INSRR, 10 μM) it was 100%; in assay [12] (PYK2, 10 μM) it was 80%. Moreover, the Percent control is recorded as 100% in [13] (TNK2, 10 μM); 92% in assay [14] (TRKA, 10 μM); 3.2% in assay [15].

For `C#Cc1cccc(Nc2ncnc3cc(OCCOC)c(OCCOC)cc23)c1` [Erlotinib], the remaining binding at 10 µM in [1] worked out at 100%; in assay [2] it was 100%; in assay [3] it was 100%; in [4] it was 19.4%; in [5] it was 8.6%; in [6] it was 9.9%. The remaining binding at 10 µM turned out to be 2.2% in [7]; 100% in [8]; 9.9% in assay [9]; 100% in assay [10]; 100% in [11]; 100% in assay [12]. The remaining binding at 10 µM in assay [13] (TNK2, 10 μM) stood at 100%; in assay [14] it was 100%; in [15] it was 36.3%.

Consider `Cc1ccc(NC(=O)c2ccc(CN3CCN(C)CC3)cc2)cc1Nc1nccc(-c2cccnc2)n1` [Imatinib, reference compound], for which the Percent control in assay [1] stood at 100%; in assay [3] (EPHA2, 10 μM), 100%; in assay [4] (EPHA3, 10 μM) it was 100%; in [5] (EPHA8, 10 μM), 12.3%; in assay [6] it was 100%; in [7] (ERBB4, 10 μM), 100%. The Percent control in [8] (FGFR4, 10 μM) came to 100%; in assay [9] it was 19.4%; in [10] (INSR, 10 μM), 100%; in assay [11] (INSRR, 10 μM), 100%; in assay [12] (PYK2, 10 μM) it was 100%; in assay [13] (TNK2, 10 μM) it was 100%. Also, the Percent control in assay [14] (TRKA, 10 μM) was 100%; in assay [15], 100%. Moreover, in [2] (BTK, 10 μM), the remaining binding at 10 µM is 100%.

On to `COc1cc2c(Nc3ccc(Br)cc3F)ncnc2cc1OCC1CCN(C)CC1` [Vandetanib, reference compound], for which the remaining binding at 10 µM is 1.6% in assay [1]; 14.5% in assay [2] (BTK, 10 μM); 9.9% in [3] (EPHA2, 10 μM); 16.7% in assay [4] (EPHA3, 10 μM); 0.9% in assay [5] (EPHA8, 10 μM); 1.6% in assay [6]. In addition, the remaining binding at 10 µM in assay [7] (ERBB4, 10 μM) amounted to 4.5%; in assay [8] (FGFR4, 10 μM), 18.7%; in assay [9], 2.6%; in assay [10] (INSR, 10 μM), 100%; in [11] (INSRR, 10 μM), 100%; in assay [12] (PYK2, 10 μM) it was 100%. The remaining binding at 10 µM in [13] (TNK2, 10 μM) worked out at 100%; in assay [14] (TRKA, 10 μM) it was 100%; in assay [15], 7.6%.

Values taken from PMC4858680, “A platinum-based hybrid drug design approach to circumvent acquired resistance to molecular targeted tyrosine kinase inhibitors” (Scientific Reports, 2016).
